Laboratory results reported in patent publication US12594249B2 (ThermoLife International, LLC, priority 2023, dated 2026).
Values after ≈ are worked out from the molar mass of the structure shown.

Legend:
[1] = solubility of 2 g in 200 ml saturated citric acid solution (pH=3), filtration, visual; details: for appearance of liquid that passed through the filter: 2 grams in 200 ml saturated citric acid solution
Text: The resulting acidic solution was then passed out by a filter. […]

[2] = Lu et al. 2020, cited from earlier work
[3] = system: exercise capacity and recovery; experiment: case report: exercise performance and recovery of a subject who regularly trains (treadmill, arm curls test, soreness); format: in vivo, human; details: for arm curls test: maximum number of bicep curl repetitions in 30 seconds: 40 lb dumbbell; for arm curls test: maximum number of bicep curl repetitions in 30 seconds / time to exhaustion on the treadmill: 1 gram doses the day/night before and 1 hour before training; for time to recovery (measured by muscle soreness and discomfort): after training; for time to exhaustion on the treadmill: Ifit treadmill, 0 elevation, 5 miles per hour
[4] = in vivo; cited from earlier work
[5] = standard conditions; cited from earlier work
[6] = dissolution of 1 g powder in 100 ml water, visual, with and without stirring, centrifugation and filtration; details: for appearance of filtrate / solid left on the filter paper: centrifuged at 1000 rpm for 10 seconds, filtered; for visible dissolution in water without stirring: not stirred, one minute (phenoxide), 10 minutes (curcumin); for solubility in water (visual): FIG. 6 (0.5 g in 50 ml), FIGS. 7 and 8 (1 g in 100 ml)
[7] = system: chronic knee and shoulder pain; experiment: case report: oral ingestion by a person with chronic knee and shoulder pain; format: in vivo, human; details: 1 gram twice per day

SMILES	appearance of liquid that passed through the filter [1]	solubility in Phosphate buffer ([2]; Phosphate buffer) [µg/mL]	solubility in water ([2]; water) [µg/mL]	arm curls test: maximum number of bicep curl repetitions in 30 seconds [3] [repetitions]	effect on exercise capacity and recovery (summary) ([3]; person)	time to recovery (measured by muscle soreness and discomfort) ([3]; person) [days]	time to exhaustion on the treadmill ([3]; person) [min]	half-life [4] [h]	solubility in ethanol [5] [µg/mL]	appearance of filtrate ([6]; 1 g in 100 ml water)	solid left on the filter paper ([6]; 1 g in 100 ml water)	visible dissolution in water without stirring ([6]; 1 g in 100 ml water)	solubility in water with stirring ([6]; 1 g in 100 ml water, stirring 1200 rpm)	solubility in water (visual) [6]	solubility at acidic pH (conclusion) ([1]; saturated citric acid solution)	soreness the day after training ([3]; person, day after training)	onset of improvement in symptoms [7]	pain reduction during the next 30 days ([7]; 30 days)	time for all 1 gram to be dissolved in 100 ml of water ([6]; stirring at 1200 rpm with a magnetic stirrer)
COc1cc(/C=C/C(=O)CC(=O)/C=C/c2ccc(O)c(OC)c2)ccc1O [curcumin]	totally clear	0.310 (≈ 0.842 µM)	1.622 (≈ 4.4 µM)	11	no effect	2	13	~7	1000 (≈ 2710 µM)	clear and lacked color	all of the curcumin powder was left on the filter paper	no visible sign of curcumin dissolving in water	no solubility even with stirring	low solubility	–	–	–	–	–
COc1cc(/C=C/C(=O)/C=C(O)/C=C/c2ccc(O)c(OC)c2)ccc1O.N.N [ammonium phenoxide of curcumin]	characteristic orange color of curcumin	–	–	14	increased their exercise capacity and reduced the needed time for recovery	1	15.5	–	–	the color of curcumin	no solid matter was left on the filter paper	visible at one minute	–	a lot more water-soluble	increased solubility	noticeably lower	on the second day	continued showing improvement	less than 10 seconds
